The values that follow come from PubChem BioAssay AID248 (DTP/NCI, 2004).

For the assay, the system named is L1210 leukemia ip in BDF1 mice, survival T/C. Nature of the assay: NCI In Vivo Anticancer Drug Screen. Data for tumor model L1210 Leukemia (intraperitoneal) in B6D2F1 (BDF1) mice. Particulars: endpoint: mean survival time, higher = longer survival. In a few lines:
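Mice bearing the transplanted tumor received compound or vehicle. Survival of the treated group was divided by that of the vehicle-treated control group to give the ratio.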

Setting [1] is: dose: 50.0 mg/kg/injection, schedule: Q04DX003 (ip), vehicle: saline with Tween-80.
[2] abbreviates: dose: 100.0 mg/kg/injection, schedule: Q01DX001 (ip), vehicle: saline.
Setting [3] is: dose: 100.0 mg/kg/injection, schedule: Q01DX009 (ip), vehicle: saline with Tween-80.
[4] abbreviates: dose: 200.0 mg/kg/injection, schedule: Q01DX001 (ip), vehicle: saline.
Where [5] appears, read: dose: 200.0 mg/kg/injection, schedule: Q01DX009 (ip), vehicle: saline with Tween-80.
Setting [6] is: dose: 400.0 mg/kg/injection, schedule: Q01DX001 (ip), vehicle: saline.
The mark [7] stands for this setting: dose: 400.0 mg/kg/injection, schedule: Q01DX009 (ip), vehicle: saline with Tween-80.
[8] abbreviates: dose: 100.0 mg/kg/injection, schedule: Q04DX002 (ip), vehicle: Klucel (hydroxypropylcellulose) (HPC).
[9] abbreviates: dose: 200.0 mg/kg/injection, schedule: Q04DX002 (ip), vehicle: Klucel (hydroxypropylcellulose) (HPC).
[10] abbreviates: dose: 400.0 mg/kg/injection, schedule: Q04DX002 (ip), vehicle: Klucel (hydroxypropylcellulose) (HPC).
The mark [11] stands for this setting: dose: 25.0 mg/kg/injection, schedule: Q04DX003 (ip), vehicle: saline.
The mark [12] stands for this setting: dose: 50.0 mg/kg/injection, schedule: Q04DX003 (ip), vehicle: saline.
[13] abbreviates: dose: 100.0 mg/kg/injection, schedule: Q04DX003 (ip), vehicle: saline.
The mark [14] stands for this setting: dose: 100.0 mg/kg/injection, schedule: Q01DX009 (ip), vehicle: Klucel (hydroxypropylcellulose) (HPC).
Where [15] appears, read: dose: 200.0 mg/kg/injection, schedule: Q01DX009 (ip), vehicle: Klucel (hydroxypropylcellulose) (HPC).
[16] abbreviates: dose: 400.0 mg/kg/injection, schedule: Q01DX009 (ip), vehicle: Klucel (hydroxypropylcellulose) (HPC).

Several values for one entry are separate records, joined by “and”; a condition that tells them apart may be missing. Equal entries are not always repeated. Toxic doses and inconclusive results are not listed.

On to `Clc1nc(SC2=NCCN2)c2[nH]cnc2n1`, for which the T/C is 108 % of control (dose: 10.0 mg/kg/injection, schedule: Q01DX009 (ip), vehicle: saline with Tween-80); 102 % of control (dose: 12.5 mg/kg/injection, schedule: Q01DX009 (ip), vehicle: saline with Tween-80); 106 % of control (dose: 12.5 mg/kg/injection, schedule: Q04DX003 (ip), vehicle: saline with Tween-80); 101 % of control (dose: 20.0 mg/kg/injection, schedule: Q01DX009 (ip), vehicle: saline with Tween-80); 104 % of control (dose: 25.0 mg/kg/injection, schedule: Q01DX009 (ip), vehicle: saline with Tween-80); 106 % of control (dose: 25.0 mg/kg/injection, schedule: Q04DX003 (ip), vehicle: saline with Tween-80). For the same compound, the T/C was 100 % of control (dose: 40.0 mg/kg/injection, schedule: Q01DX009 (ip), vehicle: saline with Tween-80); 113 % of control (dose: 50.0 mg/kg/injection, schedule: Q01DX009 (ip), vehicle: saline with Tween-80); 107 % of control under setting [1].
In the case of `CC/C(I)=C(/CC)S(=O)(=O)c1ccc(C)cc1`, the T/C runs as follows: under setting [2], 101 % of control; under setting [3], 98 % of control; under setting [4], 103 % of control; under setting [5], 102 % of control; under setting [6], 111 % of control; under setting [7], 98 % of control.
For the compound `CC(=O)c1cc(Cl)ccc1O`, the T/C is 104 % of control (dose: 100.0 mg/kg/injection, schedule: Q01DX001 (ip), vehicle: Klucel (hydroxypropylcellulose) (HPC)); 100 % of control under setting [8]; 106 % of control (dose: 200.0 mg/kg/injection, schedule: Q01DX001 (ip), vehicle: Klucel (hydroxypropylcellulose) (HPC)); 96 % of control under setting [9]; 97 % of control (dose: 400.0 mg/kg/injection, schedule: Q01DX001 (ip), vehicle: Klucel (hydroxypropylcellulose) (HPC)); 89 % of control under setting [10].
With `c1ccc([S][Pb]([c]2ccccc2)([c]2ccccc2)[c]2ccccc2)cc1`, the T/C runs as follows: (dose: 8.0 mg/kg/injection, schedule: Q04DX003 (ip), vehicle: saline) 111 % of control; (dose: 16.0 mg/kg/injection, schedule: Q04DX003 (ip), vehicle: saline) 103 % of control; (dose: 32.0 mg/kg/injection, schedule: Q04DX003 (ip), vehicle: saline) 122 % of control.
For `CC1(C)N=C(N)N=C(N)N1c1cccc(OCCC#N)c1`, the T/C under setting [11] is 112 % of control; the T/C under setting [12] was 108 % of control; the T/C under setting [13] is 100 % of control and 104 % of control.
Turning to `C/C(CSc1ncnc2nc[nH]c12)=N\NC(N)=S`, the T/C under setting [1] was 101 % of control; the T/C (dose: 100.0 mg/kg/injection, schedule: Q04DX003 (ip), vehicle: saline with Tween-80) is 95 % of control and 102 % of control; the T/C (dose: 200.0 mg/kg/injection, schedule: Q04DX003 (ip), vehicle: saline with Tween-80) is 93 % of control; the T/C (dose: 400.0 mg/kg/injection, schedule: Q04DX003 (ip), vehicle: saline with Tween-80) was 104 % of control.
Take `CC(C)=CCC/C(C)=C\C(N)=O`: the T/C reads like this: under setting [2], 106 % of control; under setting [4], 92 % of control; under setting [6], 111 % of control.
Turning to `C[S+](C)CC(=O)c1ccccc1`, the T/C under setting [13] was 95 % of control and the T/C (dose: 200.0 mg/kg/injection, schedule: Q04DX003 (ip), vehicle: saline) was 104 % of control.
Regarding `CN1Cc2ccccc2-c2ccccc2C1`, for the setting “dose: 75.0 mg/kg/injection, schedule: Q01DX001 (ip), vehicle: saline”, the T/C was 101 % of control.
For the compound `CC(C)=NOS(=O)(=O)c1c(C)cc(C)cc1C`, the T/C reads like this: (dose: 50.0 mg/kg/injection, schedule: Q04DX002 (ip), vehicle: Klucel (hydroxypropylcellulose) (HPC)) 98 % of control; under setting [14], 87 % of control; under setting [8], 98 % of control and 89 % of control; under setting [15], 97 % of control; under setting [9], 105 % of control; under setting [16], 97 % of control. Under setting [10], the T/C was 92 % of control.
As to `CC(CN1CC(=O)NC(=O)C1)N1CC(=O)NC(=O)C1.[Cl-].[Pt+4]` (configuration not stated), the T/C (dose: 6.25 mg/kg/injection, schedule: Q01DX009 (ip), vehicle: saline) was 110 % of control; the T/C (dose: 25.0 mg/kg/injection, schedule: Q01DX009 (ip), vehicle: saline) was 114 % of control and 120 % of control; the T/C under setting [11] was 108 % of control; the T/C (dose: 50.0 mg/kg/injection, schedule: Q01DX009 (ip), vehicle: saline) was 120 % of control; the T/C under setting [12] was 109 % of control and 120 % of control; the T/C (dose: 100.0 mg/kg/injection, schedule: Q01DX009 (ip), vehicle: saline) is 114 % of control. Moreover, the T/C was 153 % of control under setting [13] and 116 % of control (dose: 150.0 mg/kg/injection, schedule: Q04DX003 (ip), vehicle: saline).
Turning to `CC1([CH2][Hg][I])COCC([CH2][Hg][I])O1` (configuration not stated), the T/C is 105 % of control (dose: 0.78 mg/kg/injection, schedule: Q01DX001 (ip), vehicle: acetone); 98 % of control (dose: 0.78 mg/kg/injection, schedule: Q04DX003 (ip), vehicle: saline); 94 % of control (dose: 1.56 mg/kg/injection, schedule: Q01DX001 (ip), vehicle: acetone); 96 % of control (dose: 1.56 mg/kg/injection, schedule: Q04DX003 (ip), vehicle: saline); 94 % of control (dose: 3.12 mg/kg/injection, schedule: Q01DX001 (ip), vehicle: acetone); 98 % of control (dose: 3.12 mg/kg/injection, schedule: Q04DX003 (ip), vehicle: saline). Also, the T/C (dose: 4.6 mg/kg/injection, schedule: Q04DX003 (ip), vehicle: acetone) was 93 % of control; the T/C (dose: 5.75 mg/kg/injection, schedule: Q01DX009 (ip), vehicle: acetone) is 107 % of control; the T/C (dose: 7.0 mg/kg/injection, schedule: Q04DX003 (ip), vehicle: acetone) is 96 % of control; the T/C (dose: 10.5 mg/kg/injection, schedule: Q04DX003 (ip), vehicle: acetone) was 95 % of control; the T/C (dose: 11.5 mg/kg/injection, schedule: Q01DX009 (ip), vehicle: acetone) is 107 % of control; the T/C (dose: 15.0 mg/kg/injection, schedule: Q04DX003 (ip), vehicle: saline) was 110 % of control. In addition, the T/C is, setting by setting: (dose: 23.0 mg/kg/injection, schedule: Q01DX009 (ip), vehicle: acetone) 111 % of control; (dose: 23.0 mg/kg/injection, schedule: Q04DX003 (ip), vehicle: saline) 110 % of control.
For the compound `CC(CO)(CO)NC(=O)Nc1ccccc1F`, the T/C reads like this: under setting [3], 113 % of control; under setting [5], 103 % of control; under setting [7], 101 % of control.
With `CCCCOC1=CC2C(=CCC3C2(C)C(=O)CC2(C)C(C(C)(O)C(=O)/C=C/C(C)(C)O)C(O)CC32C)C(C)(C)C1=O` (configuration not stated), the T/C is, setting by setting: (dose: 50.0 mg/kg/injection, schedule: Q04DX002 (ip), vehicle: saline with Tween-80) 97 % of control; (dose: 100.0 mg/kg/injection, schedule: Q04DX002 (ip), vehicle: saline with Tween-80) 97 % of control; (dose: 200.0 mg/kg/injection, schedule: Q04DX002 (ip), vehicle: saline with Tween-80) 101 % of control.
As to `CCOC(=O)CC(C)C(Br)(C(=O)OCC)C(=O)OCC` (configuration not stated), the T/C reads like this: (dose: 25.0 mg/kg/injection, schedule: Q01DX009 (ip), vehicle: water) 109 % of control; (dose: 50.0 mg/kg/injection, schedule: Q01DX009 (ip), vehicle: water) 111 % of control; (dose: 100.0 mg/kg/injection, schedule: Q01DX009 (ip), vehicle: water) 100 % of control; (dose: 200.0 mg/kg/injection, schedule: Q01DX009 (ip), vehicle: water) 96 % of control.
Regarding `O=C(O)CCCCCCC(=O)OCC(=O)c1ccc(-c2ccccc2)cc1`, the T/C was 94 % of control under setting [2], 91 % of control under setting [4] and 91 % of control under setting [6].
Consider `CC(=O)Nc1ccc(NC(=O)C2CC2)cc1`, for which the T/C by setting is: under setting [14], 95 % of control; under setting [15], 109 % of control; under setting [16], 104 % of control.
